Laboratory results: ChEMBL document CHEMBL3091428, “Synthesis and initial biological evaluation of substituted 1-phenylamino-2-thio-4,5-dimethyl-1H-imidazole derivatives” (Bioorg Med Chem Lett, 2013)
≈ marks a conversion by molar mass, not a printed value.

Experiments:
TK-10 = experiment: Cytotoxicity against human TK10 cells assessed as cell growth after 48 hrs by SRB assay relative to control; format: functional
A498 = experiment: Cytotoxicity against human A498 cells assessed as cell growth after 48 hrs by SRB assay relative to control; format: functional
[1] = Cytotoxicity against human NCI-ADR-RES cells assessed as cell growth after 48 hrs by SRB assay relative to control; format: functional
SK-MEL-5 = experiment: Cytotoxicity against human SK-MEL-5 cells assessed as cell growth after 48 hrs by SRB assay relative to control; format: functional
SK-MEL-2 = experiment: Cytotoxicity against human SK-MEL-2 cells assessed as cell growth after 48 hrs by SRB assay relative to control; format: functional
LOX IMVI = experiment: Cytotoxicity against human LOXIMVI cells assessed as cell growth after 48 hrs by SRB assay relative to control; format: functional
SF-295 = experiment: Cytotoxicity against human SF295 cells assessed as cell growth after 48 hrs by SRB assay relative to control; format: functional
SW-620 = experiment: Cytotoxicity against human SW620 cells assessed as cell growth after 48 hrs by SRB assay relative to control; format: functional
HT-29 = experiment: Cytotoxicity against human HT-29 cells assessed as cell growth after 48 hrs by SRB assay relative to control; format: functional
HCT-15 = experiment: Cytotoxicity against human HCT15 cells assessed as cell growth after 48 hrs by SRB assay relative to control; format: functional
NCI-H460 = experiment: Cytotoxicity against human NCI-H460 cells assessed as cell growth after 48 hrs by SRB assay relative to control; format: functional
CCRF-CEM = experiment: Cytotoxicity against human CCRF-CEM cells assessed as cell growth after 48 hrs by SRB assay relative to control; format: functional
Pichia kudriavzevii = experiment: Antimicrobial activity against Candida krusei ATCC 6258 after 24 hrs by broth microdilution method; format: functional; conditions: ATCC 6258, 24 h
Candida albicans = experiment: Antimicrobial activity against Candida albicans ATCC 90028 after 24 hrs by broth microdilution method; format: functional; conditions: ATCC 90028, 24 h
Staphylococcus aureus = experiment: Antimicrobial activity against Staphylococcus aureus ATCC 25923 after 24 hrs by broth microdilution method; format: functional; conditions: ATCC 25923, 24 h
Pseudomonas aeruginosa = experiment: Antimicrobial activity against Pseudomonas aeruginosa ATCC 27853 after 24 hrs by broth microdilution method; format: functional; conditions: ATCC 27853, 24 h
Klebsiella pneumoniae = experiment: Antimicrobial activity against Klebsiella pneumoniae ATCC 13883 after 24 hrs by broth microdilution method; format: functional; conditions: ATCC 13883, 24 h
Escherichia coli = experiment: Antimicrobial activity against Escherichia coli ATCC 25922 after 24 hrs by broth microdilution method; format: functional; conditions: ATCC 25922, 24 h
DU-145 = experiment: Cytotoxicity against human DU145 cells assessed as cell growth after 48 hrs by SRB assay relative to control; format: functional
PC-3 = experiment: Cytotoxicity against human PC3 cells assessed as cell growth after 48 hrs by SRB assay relative to control; format: functional
[2] = Toxicity in brine shrimp larvae assessed as mortality after 24 hrs; format: organism-based; conditions: artemia salina, in vivo
Artemia salina [3] = experiment: Toxicity in brine shrimp larvae assessed as mortality at 50 ug/ml after 24 hrs; format: organism-based; conditions: in vivo
Artemia salina [4] = experiment: Toxicity in brine shrimp larvae assessed as mortality at 100 ug/ml after 24 hrs; format: organism-based; conditions: in vivo

COc1ccc(C(=O)CSc2nc(C)c(C)n2Nc2ccccc2)cc1
Activity (TK-10): 109.3%
Activity (A498): 90.87%
Activity [1]: 83.61%
Activity (SK-MEL-5): 100.7%
Activity (SK-MEL-2): 94.21%
Activity (LOX IMVI): 104.8%
Activity (SF-295): 90.39%
Activity (SW-620): 105.7%
Activity (HT-29): 94.25%
Activity (HCT-15): 88.63%
Activity (NCI-H460): 96.54%
Activity (CCRF-CEM): 89.68%
MIC (Pichia kudriavzevii): 800 µg/mL (≈ 2180 µM)
MIC (Candida albicans): 400 µg/mL (≈ 1090 µM)
MIC (Staphylococcus aureus): 800 µg/mL (≈ 2180 µM)
MIC (Pseudomonas aeruginosa): 200 µg/mL (≈ 544 µM)
MIC (Klebsiella pneumoniae): 800 µg/mL (≈ 2180 µM)
MIC (Escherichia coli): 400 µg/mL (≈ 1090 µM)
Activity (DU-145): 111.6%
Activity (PC-3): 89.35%

Cc1nc(SCC(=O)c2ccccc2)n(Nc2ccccc2)c1C
Activity (TK-10): 127.6%
Activity (A498): 91.12%
Activity [1]: 96.87%
Activity (SK-MEL-5): 99.8%
Activity (SK-MEL-2): 97.16%
Activity (LOX IMVI): 102.1%
Activity (SF-295): 86.98%
Activity (SW-620): 109.1%
Activity (HT-29): 97.65%
Activity (HCT-15): 99.3%
Activity (NCI-H460): 104.4%
Activity (CCRF-CEM): 90.27%
LC50 at 24 h [2]: > 1600 µg/mL
Activity (Artemia salina [3]): Non-toxic
Activity (Artemia salina [4]): Non-toxic
MIC (Pichia kudriavzevii): 400 µg/mL (≈ 1190 µM)
MIC (Candida albicans): 400 µg/mL (≈ 1190 µM)
MIC (Staphylococcus aureus): 800 µg/mL (≈ 2370 µM)
MIC (Pseudomonas aeruginosa): 200 µg/mL (≈ 593 µM)
MIC (Klebsiella pneumoniae): 800 µg/mL (≈ 2370 µM)
MIC (Escherichia coli): 800 µg/mL (≈ 2370 µM)
Activity (DU-145): 109.3%
Activity (PC-3): 102%

Cc1nc(SCC(=O)c2ccc(Cl)cc2)n(Nc2ccccc2)c1C
Activity (TK-10): 117.2%
Activity (A498): 82.14%
Activity [1]: 93.39%
Activity (SK-MEL-5): 96.98%
Activity (SK-MEL-2): 91.02%
Activity (LOX IMVI): 101.4%
Activity (SF-295): 89.88%
Activity (SW-620): 108.9%
Activity (HT-29): 99.26%
Activity (HCT-15): 92.65%
Activity (NCI-H460): 98.85%
Activity (CCRF-CEM): 81.64%
MIC (Pichia kudriavzevii): 200 µg/mL (≈ 538 µM)
MIC (Candida albicans): 200 µg/mL (≈ 538 µM)
MIC (Staphylococcus aureus): 800 µg/mL (≈ 2150 µM)
MIC (Pseudomonas aeruginosa): 400 µg/mL (≈ 1080 µM)
MIC (Klebsiella pneumoniae): 800 µg/mL (≈ 2150 µM)
MIC (Escherichia coli): 800 µg/mL (≈ 2150 µM)
Activity (DU-145): 115.8%
Activity (PC-3): 91.86%
